In publication PMC3433420 (PLoS ONE, 2012):
Residues, ends and D or L forms follow the SMILES beside them.

Experiments:
SH2 and PTB domains [1] = target: T1, SH2 and PTB domains (Homo sapiens, UniProt P43403); test: In-house protein microarrays (with or without 5 mM DTT), protein named per line; assay type: binding
T1 construct: thioredoxin; made in house; host or cells: BL21(DE3)pLysS E. coli
T1 sequence (P43403 1-619): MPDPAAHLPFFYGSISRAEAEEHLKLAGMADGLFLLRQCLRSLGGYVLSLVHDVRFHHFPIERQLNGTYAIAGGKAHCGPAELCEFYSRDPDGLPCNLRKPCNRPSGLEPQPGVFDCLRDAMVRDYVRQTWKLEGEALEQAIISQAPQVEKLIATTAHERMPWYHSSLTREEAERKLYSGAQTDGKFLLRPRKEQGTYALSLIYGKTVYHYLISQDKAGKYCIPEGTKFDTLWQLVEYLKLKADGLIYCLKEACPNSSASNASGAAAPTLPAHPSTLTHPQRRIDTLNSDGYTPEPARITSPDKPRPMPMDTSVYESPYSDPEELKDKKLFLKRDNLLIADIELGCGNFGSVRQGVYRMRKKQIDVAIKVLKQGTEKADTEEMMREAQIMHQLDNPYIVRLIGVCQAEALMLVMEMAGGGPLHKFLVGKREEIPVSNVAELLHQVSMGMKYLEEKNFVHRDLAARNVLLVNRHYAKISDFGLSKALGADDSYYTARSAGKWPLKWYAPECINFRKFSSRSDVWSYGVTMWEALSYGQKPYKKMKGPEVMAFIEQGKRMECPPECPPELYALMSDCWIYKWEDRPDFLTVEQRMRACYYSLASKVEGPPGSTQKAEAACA
Procedure, shortened: (§1)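 KD values come from rhodamine fluorescence of duplicate spots after subtraction of a thioredoxin control. Domains were printed at ~40 µM on aldehyde slides, blocked 1 h at room temperature in pH 7.8 HEPES/KCl buffer with 5 mM DTT and 1% BSA, then peptide-probed.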

SH2 and PTB domains [2] = target: T2, SH2 and PTB domains (Homo sapiens, UniProt P19174); test: as above; assay type: binding
T2 construct: thioredoxin; made in house; host or cells: BL21(DE3)pLysS E. coli
T2 sequence (P19174 1-1290): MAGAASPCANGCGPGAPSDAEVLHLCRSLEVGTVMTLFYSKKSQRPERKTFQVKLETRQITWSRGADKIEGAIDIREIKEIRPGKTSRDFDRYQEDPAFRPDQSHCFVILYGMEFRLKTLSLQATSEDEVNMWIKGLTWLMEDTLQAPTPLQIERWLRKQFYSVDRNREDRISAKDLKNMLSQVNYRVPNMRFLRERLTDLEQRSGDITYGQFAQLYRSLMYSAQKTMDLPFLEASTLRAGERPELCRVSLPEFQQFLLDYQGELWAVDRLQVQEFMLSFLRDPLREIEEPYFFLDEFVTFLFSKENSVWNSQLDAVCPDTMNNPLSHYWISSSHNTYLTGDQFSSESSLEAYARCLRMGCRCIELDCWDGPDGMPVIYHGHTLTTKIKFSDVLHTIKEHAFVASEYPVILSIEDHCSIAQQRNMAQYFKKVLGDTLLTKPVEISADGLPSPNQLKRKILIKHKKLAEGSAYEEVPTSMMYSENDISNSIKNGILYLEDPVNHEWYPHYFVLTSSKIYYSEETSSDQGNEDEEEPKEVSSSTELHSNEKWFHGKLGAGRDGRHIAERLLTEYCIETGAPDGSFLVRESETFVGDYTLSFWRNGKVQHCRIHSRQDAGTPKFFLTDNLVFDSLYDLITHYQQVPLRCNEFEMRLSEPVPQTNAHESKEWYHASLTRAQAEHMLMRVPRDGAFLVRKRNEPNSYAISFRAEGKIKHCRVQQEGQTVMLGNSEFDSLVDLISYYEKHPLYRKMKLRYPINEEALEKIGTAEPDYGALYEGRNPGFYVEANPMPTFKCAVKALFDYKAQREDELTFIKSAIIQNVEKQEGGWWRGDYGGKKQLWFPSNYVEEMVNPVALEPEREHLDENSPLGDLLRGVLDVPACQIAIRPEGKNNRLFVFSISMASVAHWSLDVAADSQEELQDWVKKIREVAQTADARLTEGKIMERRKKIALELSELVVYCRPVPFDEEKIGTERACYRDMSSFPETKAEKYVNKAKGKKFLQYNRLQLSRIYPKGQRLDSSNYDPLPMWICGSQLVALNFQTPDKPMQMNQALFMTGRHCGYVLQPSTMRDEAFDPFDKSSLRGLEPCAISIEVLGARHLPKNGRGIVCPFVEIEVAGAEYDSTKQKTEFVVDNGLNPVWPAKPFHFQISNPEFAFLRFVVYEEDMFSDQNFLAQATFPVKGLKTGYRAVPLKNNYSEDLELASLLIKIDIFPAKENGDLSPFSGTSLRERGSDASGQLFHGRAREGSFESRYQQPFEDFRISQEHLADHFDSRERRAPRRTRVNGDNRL
Procedure, shortened: as §1

`CC(C)C[C@H](NC(=O)[C@@H]1CCCN1C(=O)[C@H](C)NC(=O)[C@@H](NC(=O)[C@H](Cc1ccc(OP(=O)(O)O)cc1)NC(=O)CNC(=O)[C@H](CC(=O)O)NC(=O)[C@@H](NC(=O)[C@@H](N)CCC(=O)O)[C@@H](C)O)C(C)C)C(=O)N[C@H](C(=O)N[C@@H](CS)C(=O)N[C@@H](CO)C(=O)N[C@@H](CC(=O)O)C(=O)O)[C@@H](C)O` [ErbB2 pY1127] was tested, and the “Kd” value (SH2 and PTB domains [1]; protein ZAP70-NC, PM assay replicate # 39336, array fabrication # 39329) was 2410 nM, the “Kd” value (SH2 and PTB domains [1]; protein ZAP70-NC, PM assay replicate # 39337, array fabrication # 39329) was 2010 nM and the “Kd” value (SH2 and PTB domains [2]; protein PLCG1-C, PM assay replicate # 39336, array fabrication # 39329) was 4090 nM. For the same compound, the “Kd” value (SH2 and PTB domains [2]; protein PLCG1-C, PM assay replicate # 39337, array fabrication # 39329) was 110 nM, the “Kd” value (SH2 and PTB domains [2]; protein PLCG1-NC, PM assay replicate # 39336, array fabrication # 39329) was 8820 nM and the “Kd” value (SH2 and PTB domains [2]; protein PLCG1-NC, PM assay replicate # 39337, array fabrication # 39329) was 1920 nM.
In the case of `CCN(CC)c1ccc2c(-c3ccc(C(=O)N[C@@H](CC(N)=O)C(=O)NCC(=O)N4CCC[C@H]4C(=O)N4CCC[C@H]4C(=O)N[C@@H](CCCCN)C(=O)N[C@@H](C)C(=O)N[C@@H](CCC(=O)O)C(=O)N[C@@H](CC(=O)O)C(=O)N[C@@H](CCC(=O)O)C(=O)N[C@@H](Cc4ccc(OP(=O)(O)O)cc4)C(=O)N[C@H](C(=O)N[C@@H](CC(N)=O)C(=O)N[C@@H](CCC(=O)O)C(=O)N4CCC[C@H]4C(=O)N[C@@H](CC(C)C)C(=O)N[C@@H](Cc4ccc(O)cc4)C(=O)N[C@@H](CC(C)C)C(=O)N[C@@H](CC(=O)O)C(=O)O)C(C)C)cc3C(=O)[O-])c3ccc(=[N+](CC)CC)cc-3oc2c1` [ErbB4 1202 (18-mer)] (HELM PEPTIDE1{[CCN(CC)c1ccc2c(-c3ccc(C(=O)[*:2])cc3C(=O)[O-])c3ccc(=[N+](CC)CC)cc-3oc2c1].N.G.P.P.K.A.E.D.E.[O=C([C@H](Cc1ccc(OP(=O)(O)O)cc1)N[*:1])[*:2]].V.N.E.P.L.Y.L.D}$$$$V2.0), the “Kd” value (SH2 and PTB domains [2]; protein PLCG1-C, PM assay replicate # 39307, array fabrication # 39286) is reported as 1260 nM.
For `CC[C@H](C)[C@H](NC(=O)[C@H](CC(N)=O)NC(=O)[C@H](CC(N)=O)NC(=O)[C@H](CCCCN)NC(=O)[C@H](CC(C)C)NC(=O)[C@H](Cc1ccc(OP(=O)(O)O)cc1)NC(=O)[C@H](CCC(=O)O)NC(=O)[C@H](C)NC(=O)[C@H](CCCCN)NC(=O)CNC(=O)[C@H](CC(C)C)NC(=O)[C@@H](NC(=O)[C@H](CC(N)=O)NC(=O)[C@H](C)NC(=O)[C@@H](N)Cc1ccccc1)[C@@H](C)O)C(=O)N[C@@H](CC(C)C)C(=O)N[C@@H](CO)C(=O)N[C@@H](CC(=O)O)C(=O)O` [ErbB4 pY1221 (18-mer)] (HELM PEPTIDE1{F.A.N.T.L.G.K.A.E.[O=C([C@H](Cc1ccc(OP(=O)(O)O)cc1)N[*:1])[*:2]].L.K.N.N.I.L.S.D}$$$$V2.0), the “Kd” value (SH2 and PTB domains [1]; protein ZAP70-C, PM assay replicate # 39352, array fabrication # 39336) was 790 nM.
